Like-named read-outs stand apart in the source and are kept apart here.
How the values were obtained:
[1] = system: SOCE in human Jurkat T cells; assay: cells; format: cell-based
Method: (§1) Jurkat T-lymphocytes, primary human CD4^+ T cells and H1299 cells were pelleted at 450 ×g for 5 min, rat TMBP at 300 ×g for 8 min at room temperature and were resuspended in 1 ml of either standard JMP medium (Jurkat, H1299 and human CD4^+ T cells) or standard DMEM based medium containing 10% fetal bovine serum (FBS) (v/v) (TMBP cells). Resting TMBP cells (day 5–7 after re-stimulation) after the second to fifth re-stimulation were thawed from liquid nitrogen 12 to 40 h prior to Fura2-loading. After pre-incubation for 5 min at 37 °C, cells were incubated with 4 μM Fura2-AM for 15 min at 37 °C. After addition of the dye, cells were kept in the dark. Afterwards, cells and the dye were diluted by addition of 4 ml standard medium and incubated for another 15 min. Cells were washed twice in Ca^2+ buffer (140 mM NaCl, 5 mM KCl, 1 mM MgSO4, 1 mM CaCl2, 1 mM NaH2PO4, 20 mM HEPES, 5.5 mM glucose; pH 7.4 (NaOH), sterile filtered) and were diluted to a concentration of 2*10^6 cells/ml. Subsequently, cells were kept at room temperature for 20 min for de-esterification before the start of the first measurement.
(§2) In experiments using a Ca^2+ free/Ca^2+ re-addition protocol, cells were pelleted as described for Fura2 loading and Ca^2+ buffer was exchanged by 1 ml nominal Ca^2+ free buffer (140 mM NaCl, 5 mM KCl, 1 mM MgSO4, 1 mM NaH2PO4, 20 mM HEPES, 5.5 mM glucose; pH 7.4 (NaOH), sterile filtered) immediately before starting the measurement. The measurement was controlled by FL Solutions (Version 4.1, Hitachi High-Technologies Corporation). Fura2 was alternatively excited every 2 s at 340 ± 5 nm and 380 ± 5 nm, each 400 ms apart.
Finally, every measurement was calibrated using 0.1% (v/v) Triton X-100 to obtain a maximal ratio and 4 mM EGTA and 30 mM Tris to obtain a minimal ratio.
R is the ratio between F340 and F380. Rmin and Rmax are the minimal and maximal ratio, respectively, obtained by calibration. F380 min and F380 max are the minimal and maximal fluorescence intensity at 380 nm EX during the calibration. Finally, artefacts due to compound additions that usually could easily be identified and lasted about 8 s were deleted from the tracings using FL Solutions (Version 4.1, Hitachi High-Technologies Corporation). The fluorescence intensities of deleted data points were interpolated from those just before and after the deleted time points.
Estradiol, 2ME2 and 2ME2 derivatives were dissolved in DMSO at a concentration of 50 mM and stored at −20 °C for up to 6 months. For concentration-response curves, stock solution was freshly diluted with DMSO to obtain the same DMSO concentration of 0.2% (v/v) for all conditions.
The compound concentrations were then log transformed. Finally, the data were fitted to a corresponding nonlinear fit of variable slope using Prism 6 (GraphPad Software, USA).

[2] = system: SOCE in Jurkat T cells; assay: Inhibition during activated SOCE (thapsigargin or anti-CD3 OKT3, 1 mM extracellular Ca2+) in Jurkat T cells; format: cell-based, human; conditions: Homo sapiens, Jurkat, Jurkat T cells stimulated by 1 μM thapsigargin (TG); 1 mM extracellular Ca2+; read-out: IC50 of SOCE inhibition during active SOCE
Method: as §1
as §2, with “10^6 Jurkat T-lymphocytes, H1299 cells, TMBP cells or 4*10^6 primary human CD4^+ T cells were added into a 10 × 10 mm quartz glass cuvette (Hellma Analytics, Germany) that was placed into a fluorescence spectrophotometer (F-2710, Hitachi, Japan). In” for “In”, “apart. Fluorescence intensity was measured at an emission wavelength of 495 ± 5 nm for both excitation wavelengths.” for “apart.”
Finally, every measurement was calibrated using 0.1% (v/v) Triton X-100 to obtain a maximal ratio and 4 mM EGTA and 30 mM Tris to obtain a minimal ratio. […]
Besides the Ca^2+ free/Ca^2+ re-addition protocol, we also characterized the effect of STX564 in cells during activated SOCE in the presence of thapsigargin (TG, Fig. 2A,B) or upon stimulation via their TCR/CD3 complex (Fig. 2C). […]. […] Similarly, in Fig. 2C this effect of a partial or full recovery of SOCE was also observed, a few minutes after STX564 addition.

[3] = system: human PBMCs; assay: In vitro activation of human PBMCs by anti-CD3, interferon-γ mRNA by qPCR; format: cell-based; conditions: human PBMC; anti-CD3 stimulation
Method: In vitro activation assays were performed in 96-well plates. Briefly, 10^5 PBMCs isolated from human peripheral blood by Ficoll gradient were added onto plates coated with anti-human CD3 monoclonal antibody (5 μg ml^−1 in PBS, clone OKT3, Biolegend). 2ME2 or STX564 dissolved in DMSO were added in varying concentrations (0.01, 0.1, 1, 10 μM). […]. PBMC activation on mRNA level was determined using qPCR on samples collected 24 h after CD3 stimulation.
(§3) Total RNA was isolated using the standard TRIzol method. cDNA was synthesized using the RevertAid First Strand cDNA Synthesis Kit (Thermo Fisher Scientific). Quantitative PCR (qPCR) was performed using the StepOnePlus™ Real-Time PCR System (Applied Biosystems), as previously described [[23], [24], [25]]. Rat TMBP cell data were obtained from three to four independent duplicate measurements. β-actin served as housekeeping gene. Human PBMC data were obtained from two independent healthy donors and duplicate measurements (representative data of one donor are shown). HPRT served as housekeeping gene. For all probes (TaqMan), a combination of 5′-FAM and 3′-TAMRA quencher was used as described.

[4] = system: TMBP cells; assay: In vitro activation of TMBP cells by MBP, CD25 surface expression by flow cytometry; format: cell-based, rat
Method: (§4) In vitro activation assays were performed in 96-well plates. […]. TMBP cell activation on mRNA level was determined using qPCR and on surface protein level using surface marker staining and subsequent flow cytometry analysis.
To assess in vitro T cell activation, surface staining for CD25 (OX39, Bio-Rad) was performed. APC-labelled goat anti-mouse antibody (Jackson ImmunoResearch) was used as secondary antibody. Mouse IgG1κ (MOPC 31C, Sigma-Aldrich) was used as control.
Cytofluorometric analysis was carried out with a CytoFLEX S (Beckman Coulter) operated by CytExpert software (Beckman Coulter). All procedures were performed at 4 °C. Data were analyzed by using FlowJo software (FlowJo, LLC).

[5] = system: TMBP cells; assay: In vitro activation of TMBP cells by MBP, cytokine mRNA by qPCR; format: cell-based, rat; conditions: TMBP cells + MBP; 6 h; qPCR
Method: Myelin basic protein (MBP)-reactive CD4^+ T cells retrovirally transduced to express enhanced GFP (TMBP cells) were established as previously reported. In brief, 6–8 week old female Lewis rats were immunized subcutaneously with 150 μl of emulsion consisting of equal parts of MBP (stock concentration: 1 mg/ml) and complete Freund's adjuvant containing heat-inactivated Mycobacterium tuberculosis extract (Difco; stock concentration: 2 mg/ml). Draining lymph nodes were harvested and passed through a cell strainer (40 μm) 9–10 days after immunization. The cell suspension was co-cultured with GP + E86 packaging cell lines producing replication-deficient retroviruses in the presence of 10 μg/ml MBP. Murine IL-2 was added to the culture for T cell expansion from day 2–4 after stimulation. The cell lines underwent 3–4 cycles of stimulation before being used for in vitro and in vivo experiments. […] Upon stimulation, they produced interferon-γ and IL-17.
as §4, §3

[6] = system: IP3 receptors; assay: IP3-evoked Ca2+ release in permeabilized Jurkat T cells; format: cell-based, human; conditions: 2 μM IP3
Method: (§5) 3 ∗ 10^7 Jurkat T-lymphocytes per measurement were centrifuged at 450 ×g for 5 min at room temperature. The pellet was rinsed twice, each time using 10 ml permeabilization buffer 1 (120 mM KCl, 10 mM NaCl, 1.2 mM MgCl2, 0.533 mM CaCl2, 1 mM EGTA and 10 mM HEPES, pH 7.2 (KOH), sterile filtered). Subsequently, the pellet was resuspended in 2 ml permeabilization buffer 1 containing 80 μg/ml saponin (Fluka) and the cells were incubated for 10 min at 37 °C. Subsequently, the cells were centrifuged at 450 ×g for 5 min at room temperature and the cell pellet was washed once in 10 ml permeabilization buffer 2 (120 mM KCl, 10 mM NaCl, 1.2 mM MgCl2 and 10 mM HEPES, pH 7.2 (KOH), sterile filtered). Finally, the cells were taken up in 1 ml permeabilization buffer 2, placed into a cuvette and measured at the fluorescence spectrophotometer. Before the start of the measurement, 0.5 μl of 1 mM Fura2 free acid (dissolved in pure water, final concentration: 0.5 μM), 5 μl of 5 mg/ml creatinkinase (dissolved in permeabilization buffer 2, final concentration: 25 μg/ml, 20 U/ml, Roche) and 10 μl of 2 M creatin phosphate (dissolved in permeabilization buffer 2, final concentration: 20 mM, Calbiochem) were added. Fura2 was used to measure the Ca^2+ concentration and creatinkinase and creatin phosphate were used as ATP-regenerating system. The measurement was controlled by FL Solutions (Version 4.1, Hitachi High-Technologies Corporation). Fura2 was alternatively excited every 2 s at 340 ± 5 nm and 380 ± 5 nm, each 400 ms apart. Fluorescence intensity was measured at an emission wavelength of 495 ± 5 nm for both excitation wavelengths. […] Ca^2+ concentrations were calculated according to Grynkiewicz et al. as described earlier in Section 2.4.
(§6) As a quantitative read-out for inhibition of IP3 receptors, the peak [Ca^2+] after IP3 addition was subtracted from the mean [Ca^2+] between 25 and 75 s before IP3 addition (dPeak). […] The rate constant K of the fitted data was used as a quantitative read-out for SERCA pump activity and its inhibition.

[7] = system: SERCA pumps; assay: SERCA activity (ATP-induced Ca2+ reuptake) in permeabilized Jurkat T cells; format: cell-based, human
Method: as §5, §6

[8] = Homo sapiens, Jurkat, Jurkat T cells, Ca2+ free/Ca2+ re-addition protocol, plateau 425-475 s after re-addition of 1 mM Ca2+, read-out: IC50 of SOCE inhibition
[9] = Jurkat T cells, Ca2+ free/Ca2+ re-addition protocol
[10] = Jurkat T cells, Ca2+ free/Ca2+ re-addition protocol, plateau 425-475 s after re-addition of 1 mM Ca2+, read-out: IC50 of SOCE inhibition
[11] = Homo sapiens, Jurkat, read-out: IC50 of SOCE inhibition, Jurkat T cells, Ca2+ free/Ca2+ re-addition protocol, plateau 425-475 s after re-addition of 1 mM Ca2+

Compound: CCc1cc2c(cc1O)CCC1C2CCC2(C)C(CC(C)=O)CCC12 (centres unmarked) [STX1306]
- IC50 [1, 8]: 1600 nM

Compound: CCc1cc2c(cc1OS(N)(=O)=O)CCC1C2CCC2(C)C(OS(N)(=O)=O)CCC12 (centres unmarked) [STX243]
- IC50 [1, 8]: 5200 nM
- concentration giving almost complete inhibition of Ca2+ entry [1, 9]: 25 µM
- IC50 fold smaller as compared to STX139 ([1]; Jurkat T cells, SOCE): approx. 2 fold

Compound: CCc1cc2c(cc1O)CCC1C2CCC2(C)C(O)CCC12 (centres unmarked) [STX139, 2-ethyl-estradiol]
- IC50 [1, 8]: ~12000 nM
- concentration giving almost complete inhibition of Ca2+ entry [1, 9]: 50 µM

Compound: COc1cc2c(cc1OS(N)(=O)=O)CCC1C2CCC2(C)C(CC#N)CCC12 (centres unmarked) [STX641]
- IC50 [1, 8]: 1700 nM
- fold more potent than the 17β-hydroxyl-compound (2ME2) ([1]; Jurkat T cells, SOCE): 10 fold

Compound: C[C@]12CC[C@@H]3c4ccc(O)cc4CC[C@H]3[C@@H]1CC[C@@H]2O [E2, estradiol]
- IC50 [1, 8]: 55000 nM

Compound: CCc1cc2c(cc1OS(N)(=O)=O)CCC1C2CCC2(C)C(C[N+](=O)[O-])CCC12 (centres unmarked) [STX1177]
- IC50 [1, 8]: 1300 nM
- IC50 [1, 10]: ~1000 nM

Compound: COc1cc2c(cc1OS(N)(=O)=O)CCC1C2CCC2(C)C(O)CCC12 (centres unmarked) [STX68]
- IC50 ([1]; Homo sapiens, Jurkat, read-out: IC50 of SOCE inhibition): 25000 nM

Compound: COc1cc2c(cc1O)CC[C@@H]1[C@@H]2CC[C@]2(C)[C@@H](O)CC[C@@H]12 [2ME2, 2-Methoxyestradiol]
- IC50 [2]: 71000 nM
- fold higher concentration necessary compared to STX564 for antagonist effect on interferon-γ expression [3]: approx. 10 fold
- concentration at which up-regulation of CD25 was significantly reduced [4]: much higher concentration
- IC50 [1, 8]: 20000 nM
- fold higher potency compared to estradiol in inhibiting Ca2+ entry ([1]; Jurkat T cells, SOCE): 2.5 fold
- concentration at which TCR/CD3-evoked pro-inflammatory cytokine expression was significantly reduced [5]: significantly higher concentrations

Compound: CCc1cc2c(cc1O)CCC1C2CCC2(C)C(CC#N)CCC12 (centres unmarked) [STX505]
- IC50 [1, 11]: 1700 nM

Compound: CCc1cc2c(cc1OS(N)(=O)=O)CCC1C2CCC2(C)C(CC(C)=O)CCC12 (centres unmarked) [STX1307]
- IC50 [1, 8]: 1100 nM
- IC50 [1, 10]: ~1000 nM

Compound: COc1cc2c(cc1O)CCC1C2CCC2(C)C(CC#N)CCC12 (centres unmarked) [STX640]
- IC50 [1, 11]: 2100 nM
- fold more potent than the 17β-hydroxyl-compound (2ME2) ([1]; Jurkat T cells, SOCE): 10 fold

Compound: C/C=C(/C)C(=O)O[C@H]1C(C)=C2[C@H]([C@@H]1OC(=O)CCCCCCC)[C@@](C)(OC(C)=O)C[C@H](OC(=O)CCC)[C@@]1(O)[C@H]2OC(=O)[C@@]1(C)O [thapsigargin]
- effect on IP3-evoked Ca2+ release [6]: eliminating effects of IP3
- effect on SERCA activity (initial slope of [Ca2+] upon ATP addition) [7]: almost completely abolished

Compound: CCc1cc2c(cc1O)CCC1C2CCC2(C)C(C[N+](=O)[O-])CCC12 (centres unmarked) [STX1175]
- IC50 [1, 8]: 1400 nM

Reference: paper PMC8062851, “2-Methoxyestradiol and its derivatives inhibit store-operated Ca^2+ entry in T cells: Identification of a new and potent inhibitor” (Biochimica et Biophysica Acta. Molecular Cell Research, 2021)
